Assays:
stroke = settings: people with atrial fibrillation; cited from earlier work
[1] = tested on: recent-onset atrial fibrillation; settings: phase 3 trial; cited from earlier work
atrial flutter = assay: Termination of induced atrial flutter in anesthetized Wistar rats (ECG); type: in vivo; settings: nine rats, 0.02-0.3 mg/kg via tail vein
Excerpt: (§1) Induction of atrial tachycardia, atrial fibrillation and atrial flutter in rats—Wistar rats of either sex weighing 450-550 g were used in this study. Rats were anesthetized and atrial tachycardia, atrial fibrillation, or atrial flutter were induced by cardiac stimulation using a programmable stimulator with an isolated constant-current source. Stimuli of rectangular pulses of 2 milliseconds (ms) duration at three times diastolic threshold were delivered via transesophageal bipolar catheter positioned optimally to stimulate the atria. Double and triple extra stimulation techniques or a minimal coupling interval of 10 ms were performed in an attempt to induce atrial arrhythmias. Atrial burst pacing at intervals of 40 to 80 ms was also performed to induce atrial arrhythmias.
(§2) Electrocardiogram (ECG) recording—The surface six-lead ECG was continuously recorded from subcutaneous 25-gauge electrodes in each limb of the animal. The ECG channels were amplified (0.1-0.5 mV/cm) and filtered between 0.5-250 Hz. The ECG variables were calculated according to standard criteria.
(§3) Rapidly hydrolysable cholinergic receptor agonists (RHCA)—The RHCA were injected either through the tail vein or directly into the right ventricular cavity of rats with induced atrial fibrillation, atrial flutter or atrial tachycardia. The RHCA used in the present study was acetylcholine (ACh). […]

atrial fibrillation [2] = assay: Termination of induced atrial fibrillation in anesthetized Wistar rats (ECG); type: in vivo
Excerpt: as §1, §2
Rapidly hydrolysable cholinergic receptor agonists (RHCA)—The RHCA were injected either through the tail vein or directly into the right ventricular cavity of rats with induced atrial fibrillation, atrial flutter or atrial tachycardia. The RHCA used in the present study was acetylcholine (ACh). ACh was dissolved at a concentration of either 1 mg/ml or 0.1 mg/ml in 0.9% NaCl solution and was injected either to the tail vein at a dosage of 0.2 mg/kg body weight, or to the right ventricle at a dosage of 0.02 mg/kg body weight.
Atrial fibrillation was elicited in rats as described in Example 1, hereinabove.

atrial tachycardia = assay: Termination of induced atrial tachycardia in anesthetized Wistar rats (ECG); type: in vivo
Description: The effect of rapidly hydrolysable cholinergic receptor agonists (RHCA) on supraventricular arrhythmia was tested in anesthetized Wistar rats, as follows.
as §1, §2, §3

atrial fibrillation [3] = assay: Termination of induced atrial fibrillation in anesthetized Wistar rats (ECG); type: in vivo; remark: listed apart in the source
arrhythmia induction = settings: wild type and M1 cholinergic receptor knockout mice; cited from earlier work
[4] = 0.2 mg/kg through the tail vein, FIG. 5
[5] = RHCA into right ventricular cavity, n=10, FIG. 4
[6] = bolus injection 0.04-0.2 mg/kg body weight
[7] = bolus injection into the right ventricular cavity
[8] = bolus injection into the tail vein
[9] = 0.02 mg/kg into right ventricular cavity, FIG. 2b
[10] = 0.2 mg/kg via tail vein, FIG. 2a

Structure (SMILES): CC(=O)CC(c1ccccc1)c1c(O)c2ccccc2oc1=O (stereo not shown) [Coumadin, warfarin]
- reduction of the risk of stroke (stroke): 60-80%

Structure (SMILES): COc1ccc(CCO[C@@H]2CCCC[C@H]2N2CC[C@@H](O)C2)cc1OC [RSD1235]
- conversion of recent-onset atrial fibrillation to sinus rhythm [1]: demonstrated its effectiveness to convert recent-onset atrial fibrillation to sinus rhythm

Structure (SMILES): CC(=O)OCC[N+](C)(C)C [acetylcholine]
- time to conversion to sinus rhythm (atrial flutter): 2 to 5 s
- additional time until SA and AV nodes / AV conduction recovered (atrial fibrillation [2]; [4]): 1.5 s
- time to termination of atrial fibrillation (atrial fibrillation [2]; [4]): ≤ 9.8 s
- atrial fibrillation cases terminated (atrial fibrillation [2]; [5]): 100%
- time within which atrial fibrillation cases are terminated (atrial fibrillation [2]; [5]): ≤ 8.4 ± 1.9 s
- time to termination of atrial fibrillation (atrial fibrillation [2]; [6]): 0.5 to 15 s
- additional time to restore normal rhythm (atrial fibrillation [2]; [7]): 1 to 5 s
- time to termination of atrial fibrillation (atrial fibrillation [2]; [7]): 0.5 to 10.5 s
- additional time to restore normal rhythm (atrial fibrillation [2]; [8]): 1 to 5 s
- time to termination of atrial fibrillation (atrial fibrillation [2]; [8]): 2 to 15 s
- time of complete AV node conduction recovery following RHCA administration (atrial tachycardia; 0.02 mg/kg into right ventricular cavity): about 6 seconds
- period of cardiac arrest after termination (atrial tachycardia; [9]): 1.25 s
- time until AV conduction completely recovered (atrial tachycardia; [9]): about 4.5 sec
- time to termination of atrial tachycardia (atrial tachycardia; 0.02 mg/kg into right ventricular cavity, example rat (FIG. 2b)): 0.5 s
- duration of high degree AV block (atrial tachycardia; 0.02 mg/kg into right ventricular cavity, following acetylcholine hydrolysis): 2.5 s
- lag to termination of atrial tachycardia (atrial tachycardia; 0.2 mg/kg body weight via tail vein, representative rat (FIG. 2a)): 2.6 s
- time for sinus rhythm to reach its pre-arrhythmic value (atrial tachycardia; 0.2 mg/kg via tail vein): about 1 minute
- P-P interval immediately following RHCA administration (atrial tachycardia; [10]): 650 ± 3 ms
- R-R interval immediately following RHCA administration (atrial tachycardia; [10]): 652 ± 3 ms
- time to termination of atrial tachycardia (atrial tachycardia; 0.02 or 0.2 mg/kg via right ventricular cavity or tail vein, respectively): 0.5 to 15 s
- additional time to restore normal rhythm (atrial tachycardia; [7]): 1 to 5 s
- time to termination of atrial tachycardia (atrial tachycardia; [7]): 0.5 to 10.5 s
- additional time to restore normal rhythm (atrial tachycardia; [8]): 1 to 5 s
- time to termination of atrial tachycardia (atrial tachycardia; [8]): 2 to 15 s
- time until cardiac arrest, escape rhythm, AV block and sinus bradycardia all disappear (atrial tachycardia; injection into right ventricular cavity): ≤ 15 s
- time to conversion to sinus rhythm (atrial tachycardia; ten rats, 0.02-0.2 mg/kg via tail vein): 2 to 5 s
- time until transient sinus bradycardia (and AV block) disappeared (atrial fibrillation [3]; 0.04 mg/kg into right ventricular cavity): ≤ 20 s
- additional time to restore normal rhythm (atrial fibrillation [3]; [6]): 1 to 5 s
- effect of intravenous injection on heart rhythm (arrhythmia induction): caused atrioventricular conduction block and induced atrial fibrillation or flutter

Source: patent US7781402B2, “Methods and implantable devices for treating supraventricular arrhythmias” (Closed Loop Therapies Ltd., priority 2004, dated 2010)
